Assay results from PubChem BioAssay (NCI).
Where “and” joins values, the source holds several entries; their conditions need not be identical. Equal values may be shown once.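 Values below derive from 48-hour exposures of cells grown in 96-well plates, with endpoints linearly interpolated between the two concentrations bracketing the appropriate inhibition level. Here, GI50 denotes the concentration required for 50% inhibition of growth. TGI is the concentration that stops growth completely.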

Columns and labels:
Assay in all cases: growth of human tumour cells (NCI), 48 h
[1] = tested on: ACHN renal
[2] = tested on: OVCAR-3 ovarian
[3] = tested on: T-47D breast
[4] = tested on: RXF 393 renal
[5] = tested on: PC-3 prostate
[6] = tested on: MALME-3M melanoma
[7] = tested on: MDA-MB-231 breast
[8] = tested on: HCT-116 colon
[9] = tested on: IGROV1 ovarian
[10] = tested on: SNB-75 CNS

Row | SMILES | TGI [1] | TGI [2] [µM] | TGI [3] [µM] | TGI [4] [µM] | TGI [5] | TGI [6] [µM] | TGI [7] [µM] | TGI [8] | TGI [9] | TGI [10] [µM] | GI50 [1] [µM] | GI50 [2] [µM] | GI50 [3] [µM] | GI50 [10] [µM] | GI50 [5] [µM] | GI50 [6] [µM] | GI50 [7] [µM] | GI50 [8] [µM] | GI50 [9] [µM] | GI50 [4] [µM]
1 | O=C1CC(C(=O)O)Cc2c(Br)ccc(O)c21 (stereo not given) | > 100 µM | > 100 | > 100 | > 100 | > 100 µM | > 100 | > 100 | > 100 µM | > 100 µM |  |  |  |  |  |  |  |  |  |  | 
2 | CC12CCCC(C#N)(C1)OC2=O (stereo not given) | > 100 µM | > 100 |  | > 100 |  | > 100 |  | > 100 µM | > 100 µM | > 100 |  |  |  |  |  |  |  |  |  | 
3 | CN1C(c2ccccc2)CC(C)(O)CC1c1ccccc1 (stereo not given) | > 100 µM | > 100 |  | > 100 |  | > 100 |  | > 100 µM | > 100 µM | > 100 |  |  |  |  |  |  |  |  |  | 
4 | CS(=O)(=O)c1ccc2c(c1)C(=O)c1c-2n(CCCBr)c(=O)c2cc([N+](=O)[O-])ccc12 | > 100 µM | > 100 | > 100 |  | > 100 µM | > 100 | > 100 | > 100 µM | > 100 µM | 42.2 | 4.98 | 28.8 | 4.88 | 12.8 | 9.94 | 69.6 | 51.1 | 7.44 | 13.6 | 
5 | C[C@]12CCCN1CC1=NNC(=O)c3cc(F)cc4[nH]c2c1c34 | > 100 µM | > 100 | 91.9 |  | > 100 µM | 70.5 | 66.5 | > 100 µM | > 100 µM | 35.9 | 21.1 | 17.8 | 20.6 | 13.6 | 20.7 | 28.9 | 18 | 14.2 | 21.5 | 
6 | COc1ccc(C2CC(c3ccccc3)=NN2C(=O)c2cc(OC)c(OC)c(OC)c2)cc1O (stereo not given) | 58.1 µM | 3.99 |  | 0.84 | > 52.8 µM | > 100 | 18.1 | 3.05 µM | > 100 µM | > 100 | 0.816 | 0.326 |  | 0.422 | 0.369 | 41.2 | 0.902 | 0.313 | 0.498 | 0.317
7 | COc1cccc(CCNC(=O)CC(c2ccccc2)(c2ccccc2)c2ccccc2)c1 | 94.8 µM | > 100 | > 100 |  | > 100 µM |  | > 100 | 26.7 µM |  | > 100 | 7.84 | 4.77 | > 100 | > 100 | 6.12 |  | > 100 | 2.58 |  | 
8 | O=C(O)CCC(=O)Oc1ccc(O)c2c1CCCC2=O | > 100 µM | > 100 |  | > 100 |  | > 100 |  | > 100 µM | > 100 µM | > 100 |  |  |  |  |  |  |  |  |  | 
9 | COC(=O)[C@H](Cc1ccccc1)NNC(=O)c1csc([C@@H](C[C@H](C(C)C)N(C)C(=O)[C@@H](NC(=O)[C@H]2CCCCN2C)C2CC2)OC(C)=O)n1 | 25 µM and > 100 µM |  |  | 25 | 25 µM and > 100 µM | > 100 |  | 25 µM and > 100 µM | 25 µM and > 100 µM |  |  | 0.00213 |  |  |  |  |  |  |  | 0.0025
10 | N#CC(C(=O)CCC(=O)Nc1ccc(Cl)cc1)c1ccc(Cl)cc1 (stereo not given) | > 100 µM | > 100 |  |  |  | > 100 |  | > 100 µM | > 100 µM |  |  |  |  |  |  |  |  |  |  | 
11 | Cc1cc(Cl)ccc1NC(=O)CC1SC(=NC(=O)c2ccccc2Cl)NC1=O (stereo not given) | 30.8 µM | 36.3 |  | 35.1 |  | 37.1 |  | 32 µM | > 100 µM | 35 |  |  |  |  |  |  |  |  |  | 
12 | C[C@@H]1CC[C@H]2[C@@H](C)C(OC/C=C/COC3O[C@@H]4O[C@@]5(C)CC[C@H]6[C@H](C)CC[C@@H]([C@H]3C)[C@@]46OO5)O[C@@H]3O[C@@]4(C)CC[C@@H]1[C@]32OO4 (stereo not given in full) |  | 1.07 | > 100 | 28.2 | > 100 µM | 61.5 | 1.11 | 13.9 µM | 38 µM |  | < 0.0169 | < 0.0109 | < 0.01 |  | < 0.01 | 0.0428 | < 0.0269 | < 0.01 | 0.77 | < 0.01
13 | O=C(CN(Cc1ccccc1)Cc1ccccc1)N1CCc2c([nH]c3ccccc23)C1c1cccnc1 (stereo not given) | > 100 µM | 34 |  |  |  |  |  | 16.2 µM | > 100 µM | 81.9 |  |  |  |  |  |  |  |  |  | 
14 | CCOC(=O)C1=C(C)NC(C)=C(C(=O)OCCNC(=O)c2ccc(N=[N+]=[N-])cc2)C1c1ccccc1C(F)(F)F (stereo not given) | 21.5 µM | 21.5 | 21.5 | 21.5 | 21.5 µM | 21.5 | 21.5 | 21.5 µM | 21.5 µM |  |  |  |  |  |  |  |  |  |  | 
15 | CC1NC(C(=O)O)Cc2cc(O)c(O)cc21 (stereo not given) | > 100 µM | > 100 | > 100 | > 100 | > 100 µM | > 100 | > 100 | > 100 µM | > 100 µM |  |  |  |  |  |  |  |  |  |  | 
16 | CCOC(=O)NC(=O)c1cn(CCCCCCCCCCC(=O)NCCCN2CCN(CCCNC(=O)CCCCCCCCCCn3cc(C(=O)NC(=O)OCC)c(=O)[nH]c3=O)CC2)c(=O)[nH]c1=O | > 100 µM | > 10 |  |  |  | > 100 |  | > 100 µM |  | > 100 |  |  |  |  |  |  |  |  |  | 
17 | Cc1ccc2nc(Sc3c([N+](=O)[O-])ncn3C)[nH]c2c1 | > 100 µM | 56.7 |  | 39.5 |  | 47.4 |  | 53.9 µM | 65.6 µM | 89.3 |  |  |  |  |  |  |  |  |  | 
18 | COc1ccc(CN2C(=O)/C(=C\C(=O)c3ccc(OCCN4CCCC4)cc3)c3ccccc32)cc1 | 3.02 µM | 3.48 |  | 3.66 | 4.83 µM | 3.35 | 4.44 |  | 3.78 µM | 30.9 | 1.66 | 1.8 |  | 14.2 | 2.35 | 1.75 | 2.17 |  | 1.99 | 1.95
19 | N.N.N.N.N.N#Cc1nn[n-]n1.[Cl-].[Co+3] | > 100 µM | > 100 |  | > 100 |  | > 100 |  | > 100 µM | > 100 µM | > 100 | > 100 | > 100 |  | > 100 |  | > 100 |  | > 100 | > 100 | > 100
